≈ marks a conversion by molar mass, not a printed value. Like-named read-outs stand apart in the source and are kept apart here.

Assay [1] concerns HaCaT (immortalized human keratinocytes). The assay is described as follows: Cytotoxicity, MTT assay. It counts as cell-based. To be noted: normal cells, 72 h, mean SD. The method, then: (§1) MTT assay was performed as previously described. Experiments were repeated three times. […] Decreased relative MTT level means decreased cell viability.
On the technique in general: Formazan colour is commonly taken as a measure of viable cells.

Assay [2] deals with SW620 (metastatic colon cancer). The assay is described as follows: Cytotoxicity, MTT assay. It counts as cell-based, human. The following applies: 72 h, mean SD. The method, then: as §1
Assay [3] has as its system SW480 (primary colon cancer). The assay is described as follows: Cytotoxicity, MTT assay. It counts as cell-based, human. The following applies: mean SD. The method, then: as §1
For the next assay, the system named is M. tuberculosis H37Rv. Put plainly: Tuberculostatic activity, Microplate Alamar Blue Assay (MABA). It counts as cell-based, Mycobacterium tuberculosis. The following applies: Mycobacterium tuberculosis. In general terms: Alamar Blue is a resazurin reagent that responds to reducing activity.
Assay [4] concerns M. tuberculosis Spec. 192. The description is as above. To be noted: Mycobacterium tuberculosis. It counts as cell-based, Mycobacterium tuberculosis.
Assay [5] concerns 30 clinically isolated strains of S. aureus and S. epidermidis. Also noted: method as in PMID 28822236, PMID 29499458. The following applies: cited from earlier work.
Where [6] appears, read: M. tuberculosis H37Rv, standard strain, MABA, read-out: MIC.
Setting [7] is: M. tuberculosis Spec. 192, patient isolate fully sensitive to tuberculostatics, MABA, read-out: MIC.

As to `N.N.[Cl][Pt][Cl]` [Cisplatin, cisplatin, reference compound], the IC50 (commonly the concentration at which inhibition is half-maximal) in assay [1] was 6.3 ± 0.7 µM; in assay [2], 6.7 ± 1.1 µM; in assay [3] (72 h), 10.4 µM.

For the compound `COc1cccc2c1C(=O)c1c(O)c3c(c(O)c1C2=O)C[C@@](O)(C(=O)CO)C[C@@H]3O[C@H]1C[C@H](N)[C@H](O)[C@H](C)O1` [Doxorubicin, doxorubicin, reference compound], the IC50 is 0.29 ± 0.11 µM in assay [1] (Homo sapiens, HaCaT) and 0.75 ± 0.1 µM in assay [3] (Homo sapiens, SW480, 72 h).

As to `CC[C@@H](CO)NCCN[C@@H](CC)CO` [Ethambutol (EMB), Ethambutol, reference compound], the MIC (in the assay with M. tuberculosis H37Rv (setting [6]); in assay [4] (setting [7])) was 2 µg/mL (≈ 9.79 µM) throughout.

For `NNC(=O)c1ccncc1` [Isoniazid (INH), Isoniazid, reference compound], the MIC (in the assay with M. tuberculosis H37Rv (H37RV); in assay [4] (SPEC.192)) was 0.125 µg/mL (≈ 0.911 µM) throughout.

As for `CO[C@H]1/C=C/O[C@@]2(C)Oc3c(C)c(O)c4c(O)c(c(/C=N/N5CCN(C)CC5)c(O)c4c3C2=O)NC(=O)/C(C)=C\C=C\[C@H](C)[C@H](O)[C@@H](C)[C@@H](O)[C@@H](C)[C@H](OC(C)=O)[C@@H]1C` [Rifampicin (RMP), Rifampicin, reference compound], the minimal inhibitory concentration (MIC) (with M. tuberculosis H37Rv (setting [6]); in assay [4] (setting [7])) was 1 µg/mL (≈ 1.22 µM) in each case.

As to `[H]/N=C(/N)N[C@H]1[C@H](O)[C@@H](O)[C@H](O[C@@H]2O[C@@H](C)[C@](O)(C=O)[C@H]2O[C@@H]2O[C@@H](CO)[C@H](O)[C@@H](O)[C@@H]2NC)[C@@H](N/C(N)=N\[H])[C@@H]1O` [Streptomycin (SM), Streptomycin, reference compound], the MIC (in the assay on M. tuberculosis H37Rv (setting [6]); in assay [4] (setting [7])) was 1 µg/mL (≈ 1.72 µM) in each case.

For the compound “complex with 1-1-(3,4-dichlorophenyl)-3-[3-(trifluoromethyl) phenyl]thiourea”, the MIC (usually the lowest concentration found to suppress growth) in assay [5] was 0.5 to 2 µg/mL.

Source of the values: PMC9779606, “Synthesis, Structural Characterization and Biological Activity Evaluation of Novel Cu(II) Complexes with 3-(trifluoromethyl)phenylthiourea Derivatives” (International Journal of Molecular Sciences, 2022).
